The results in this text go back to ChEMBL document CHEMBL4706528, “The design, synthesis and anti-tumor mechanism study of new androgen receptor degrader” (Eur J Med Chem, 2020).

The subject of assay [1] is LNCaP. In words: Induction of apoptosis in human LNCaP cells assessed as early apoptotic cells level at 1 micromol/L incubated for 24 hrs by Annexin V/PI staining staining based flow cytometry (reference value: 2.09%). It is filed as functional. To be noted: dose 1 µmol/L, at 1 µM. In general terms: In flow cytometry, cells or beads pass a laser one at a time.
In assay [2] the test system is LNCaP. In words: Induction of apoptosis in human LNCaP cells assessed as viable cells level at 2 micromol/L incubated for 24 hrs by Annexin V/PI staining staining based flow cytometry (reference value: 96.3%). It is filed as functional. The note with it: dose 2 µmol/L, at 2 µM.
Assay [3] concerns the target Transmembrane protease serine 2 (Homo sapiens) (UniProt O15393). In words: Induction of downregulation of TMPRSS2 (unknown orgin) human LNCaP cells at 1 uM after 24 hrs by Western blot analysis. A general note: A western blot detects proteins with antibodies after separation by electrophoresis.
In assay [4] the target is T1, Androgen receptor (Homo sapiens) (UniProt P10275).
T1 sequence (whole entry): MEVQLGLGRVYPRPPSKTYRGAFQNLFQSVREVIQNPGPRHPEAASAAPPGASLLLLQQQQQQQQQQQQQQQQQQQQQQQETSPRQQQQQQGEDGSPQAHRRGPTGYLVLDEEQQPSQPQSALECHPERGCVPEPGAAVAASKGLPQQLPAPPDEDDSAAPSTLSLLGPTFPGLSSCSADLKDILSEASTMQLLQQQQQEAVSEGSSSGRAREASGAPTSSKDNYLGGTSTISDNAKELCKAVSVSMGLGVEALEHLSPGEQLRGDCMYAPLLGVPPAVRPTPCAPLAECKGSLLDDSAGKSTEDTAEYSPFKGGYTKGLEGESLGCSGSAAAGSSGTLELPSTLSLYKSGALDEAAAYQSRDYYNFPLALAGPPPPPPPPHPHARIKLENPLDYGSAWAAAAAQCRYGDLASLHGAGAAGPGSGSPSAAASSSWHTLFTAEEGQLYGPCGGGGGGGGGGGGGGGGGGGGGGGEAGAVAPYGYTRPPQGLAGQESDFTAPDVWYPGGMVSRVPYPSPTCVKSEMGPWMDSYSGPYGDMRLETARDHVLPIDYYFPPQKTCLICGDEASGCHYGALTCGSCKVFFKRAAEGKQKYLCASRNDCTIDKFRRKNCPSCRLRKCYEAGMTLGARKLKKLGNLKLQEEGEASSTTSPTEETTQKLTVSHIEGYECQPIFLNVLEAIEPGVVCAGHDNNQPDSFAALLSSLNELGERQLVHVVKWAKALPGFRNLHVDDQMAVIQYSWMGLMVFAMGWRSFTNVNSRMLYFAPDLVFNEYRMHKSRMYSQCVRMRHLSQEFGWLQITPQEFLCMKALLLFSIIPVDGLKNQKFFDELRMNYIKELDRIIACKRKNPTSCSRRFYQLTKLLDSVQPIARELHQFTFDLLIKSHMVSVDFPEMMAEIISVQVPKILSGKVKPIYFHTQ
In words: Selective androgen receptor degradation activity at androgen receptor in human LNCaP cells assessed as down regulation of protein level at 10 uM after 24 hrs in presence of E-64 by Western blot analysis. It is filed as cell-based.

SMILES strings stand for the structures. Activity calls are given as the source filed them. The calls are words filed in the database; no cut-off is given here.

Sequence of Transmembrane protease serine 2 (Homo sapiens) (O15393 1-255 limits assumed): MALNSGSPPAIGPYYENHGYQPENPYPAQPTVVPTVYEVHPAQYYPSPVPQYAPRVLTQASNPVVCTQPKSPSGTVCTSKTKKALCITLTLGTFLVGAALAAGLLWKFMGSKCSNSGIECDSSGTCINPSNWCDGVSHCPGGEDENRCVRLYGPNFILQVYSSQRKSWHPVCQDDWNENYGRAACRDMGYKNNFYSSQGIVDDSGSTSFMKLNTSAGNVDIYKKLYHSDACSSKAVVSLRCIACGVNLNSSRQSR
Sequence of Transmembrane protease serine 2 (Homo sapiens) (O15393 256-492 limits assumed): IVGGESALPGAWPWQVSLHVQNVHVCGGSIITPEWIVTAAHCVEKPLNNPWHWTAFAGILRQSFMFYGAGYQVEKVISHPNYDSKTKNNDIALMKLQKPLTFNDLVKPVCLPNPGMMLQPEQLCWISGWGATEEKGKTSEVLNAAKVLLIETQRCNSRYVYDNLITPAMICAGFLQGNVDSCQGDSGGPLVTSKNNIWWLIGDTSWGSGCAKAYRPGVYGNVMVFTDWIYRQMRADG

On to `CC1(C)C(=O)N(c2ccc(C#N)c(C(F)(F)F)c2)C(=S)N1CCCCCn1cc(COCCOCCOC(=O)CC23CC4CC(CC(C4)C2)C3)nn1`, for which the Activity is given as 1.56% with LNCaP [1] and 96.1% in the assay with LNCaP [2]. Besides, the result in assay [3] and in assay [4] was Active.
